Our source for the MIC and Solubility values is US4517296A, “Antibiotic acmimycin and its production” (Toyo Jozo Kabushiki Kaisha, priority 1982, dated 1985).

≈ marks a conversion by molar mass, not a printed value.

In one series the test system is Staph. aureus ATCC6538P. The series is described as follows: MIC by agar dilution method, Staph. aureus ATCC6538P. It is filed as cell-based. The settings on record: Staphylococcus aureus, read-out: minimum inhibitory concentration (MIC). Background: In agar dilution the substance is mixed into plates at graded concentrations.
A further series concerns Staph. aureus MS27. The series is described as follows: MIC by agar dilution method, Staph. aureus MS27. Format: cell-based. The settings on record: Staphylococcus aureus, read-out: minimum inhibitory concentration (MIC).
In a further series the test system is Staph. aureus 0119. The series is described as follows: MIC by agar dilution method, Staph. aureus 0119. Conditions: Staphylococcus aureus, read-out: minimum inhibitory concentration (MIC). It is filed as cell-based.
For series [1], the system named is Staph. epidermidis sp-al-1. Put plainly: MIC by agar dilution method, Staph. epidermidis sp-al-1. It is filed as cell-based. The settings on record: Staphylococcus epidermidis, SPAL1, read-out: minimum inhibitory concentration (MIC).
Another series relates to Strept. pyogenes N.Y. 5. The series is described as follows: MIC by agar dilution method, Strept. pyogenes N.Y. 5. Conditions: Streptococcus pyogenes, read-out: minimum inhibitory concentration (MIC). Format: cell-based.
In series [2] the test system is Bacillus subtilis ATCC6633. Put plainly: MIC by agar dilution method, Bacillus subtilis ATCC6633. The settings on record: read-out: minimum inhibitory concentration (MIC). It is filed as cell-based.
The next series has as its system E. coli NIHJ-JC2. The series is described as follows: MIC by agar dilution method, E. coli NIHJ-JC2. Format: cell-based. The settings on record: Escherichia coli, NIHJJC2, read-out: minimum inhibitory concentration (MIC).
The test system of another series is E. coli W3630. The series is described as follows: MIC by agar dilution method, E. coli W3630. It is filed as cell-based. Conditions: Escherichia coli, read-out: minimum inhibitory concentration (MIC).
A further series concerns E. coli W3630RGN14. The series is described as follows: MIC by agar dilution method, E. coli W3630RGN14. It is filed as cell-based. The settings on record: Escherichia coli, W3630RGN14, read-out: minimum inhibitory concentration (MIC).
A further series has as its system Cit. freundii GN346. The series is described as follows: MIC by agar dilution method, Cit. freundii GN346. It is filed as cell-based. Conditions: Citrobacter freundii, read-out: minimum inhibitory concentration (MIC).
Series [3] has as its system Kleb. pneumoniae ATCC10031. The series is described as follows: MIC by agar dilution method, Kleb. pneumoniae ATCC10031. It is filed as cell-based. The settings on record: Klebsiella pneumoniae, read-out: minimum inhibitory concentration (MIC).
Series [4] deals with Salm. enteritidis Gaertner. The series is described as follows: MIC by agar dilution method, Salm. enteritidis Gaertner. Format: cell-based. The settings on record: Salmonella enterica, read-out: minimum inhibitory concentration (MIC).
The subject of a further series is Shigella sonnei E33. Put plainly: MIC by agar dilution method, Shigella sonnei E33. Format: cell-based. The settings on record: read-out: minimum inhibitory concentration (MIC).
The test system of a further series is Proteus morganii 0239. Put plainly: MIC by agar dilution method, Proteus morganii 0239. It is filed as cell-based. Conditions: Morganella morganii, read-out: minimum inhibitory concentration (MIC).
In the next series the test system is Proteus rettgeri ACR. Put plainly: MIC by agar dilution method, Proteus rettgeri ACR. Format: cell-based. The settings on record: Providencia rettgeri, read-out: minimum inhibitory concentration (MIC).
The test system of series [5] is Enterobac. aerogenes 0655. Put plainly: MIC by agar dilution method, Enterobac. aerogenes 0655. Format: cell-based. Conditions: read-out: minimum inhibitory concentration (MIC).
The test system of the next series is Enterobac. cloacae GN336. Put plainly: MIC by agar dilution method, Enterobac. cloacae GN336. Format: cell-based. The settings on record: read-out: minimum inhibitory concentration (MIC).
A further series deals with Serratia marcescens. Put plainly: MIC by agar dilution method, Serratia marcescens. It is filed as cell-based. The settings on record: read-out: minimum inhibitory concentration (MIC).
Series [6] has as its system Pseudo. aeruginosa IAM1095. Put plainly: MIC by agar dilution method, Pseudo. aeruginosa IAM1095. Format: cell-based. The settings on record: Pseudomonas aeruginosa, read-out: minimum inhibitory concentration (MIC).
A short description of the next series: Solubility. It is filed as physicochemical.

Consider `CNC1C(O)C(NC)C2OC3(O)C(OC)=CC(C)OC3OC2C1O` (stereo not drawn) [acmimycin], for which the MIC was 100 µg/mL (≈ 289 µM) in the series with Staph. aureus ATCC6538P; 100 µg/mL (≈ 289 µM) with Staph. aureus MS27; over 100 µg/mL in the series on Staph. aureus 0119; 50 µg/mL (≈ 144 µM) in series [1]; 3.1 µg/mL (≈ 8.95 µM) in the series with Strept. pyogenes N.Y. 5; 25 µg/mL (≈ 72.2 µM) in series [2]. Besides, the MIC is 50 µg/mL (≈ 144 µM) with E. coli NIHJ-JC2; 25 µg/mL (≈ 72.2 µM) with E. coli W3630; over 100 µg/mL in the series with E. coli W3630RGN14; over 100 µg/mL in the series on Cit. freundii GN346; 12.5 µg/mL (≈ 36.1 µM) in [3]; 25 µg/mL (≈ 72.2 µM) in series [4]. For the same compound, the MIC was 25 µg/mL (≈ 72.2 µM) in the series on Shigella sonnei E33; over 100 µg/mL in the series on Proteus morganii 0239; 100 µg/mL (≈ 289 µM) in the series on Proteus rettgeri ACR; over 100 µg/mL in series [5]; 50 µg/mL (≈ 144 µM) with Enterobac. cloacae GN336; 25 µg/mL (≈ 72.2 µM) with Serratia marcescens. In addition, the MIC in [6] was over 100 µg/mL. In addition, the Solubility entry in the series “Solubility” (in acetone) is on record as “insoluble”; in the series “Solubility” (in benzene), “insoluble”; in the series “Solubility” (in ethyl acetate), “insoluble”; in the series “Solubility” (in lower alcohols such as methanol) it was “slightly soluble”; in the series “Solubility” (in water), “soluble”.
